Test results reported in patent US4606857A, “Muramyldipeptide derivatives” (priority 1982, dated 1986).

Columns and labels:
Type in all cases: in vivo
[1] = system: delayed-type hypersensitivity to N-acetyltyrosine-3-azobenzene-4'-arsonic acid (ABA-N-Ac-Tyr); experiment: Adjuvant activity: enhancement of induction of delayed-type hypersensitivity (skin reaction); settings: guinea pig, 100 μg/animal compound with 50 μg ABA-N-Ac-Tyr in FIA into soles, 100 μg ABA-BSA intradermal two weeks later, mean ± SE; for Skin Reaction 24 Hours (diameter of erythema and induration): read 24 hours after injection; for Skin Reaction 48 Hours (diameter of erythema and induration): read 48 hours after injection
Procedure: The adjuvant activity was confirmed by the enhancing activity on the induction of delayed-type hypersensitivity to N-acetyltyrosine-3-azobenzene-4'-arsonic acid (hereinafter referred to as ABA-N-Ac-Tyr) in guinea pig.
That is, a water-in-oil emulsion prepared by mixing 50 μg/animal of ABA-N-Ac-Tyr and 100 μg/animal of each of the compounds of the present invention with Freund's incomplete adjuvant (hereinafter referred to as FIA) was administered to the soles of guinea pigs. Two weeks later, 100 μg of 3-azobenzene-4'-arsonic acid bonded to bovine serum albumin (hereinafter referred to as ABA-BSA) was intradermally injected and the diameter of skin reaction (i.e., erythema and induration) was measured 24 hours and 48 hours after the injection. The diameter of the skin reaction is considered a measure of cellular immunity.

E. coli E77156 = experiment: Prophylactic effect against microbial infection in mice; settings: STD-ddy male mice, 100 μg/mouse s.c. 24 hours before s.c. challenge
Procedure: (2) Prophylactic Effect Against Microbial Infection
Animals: Groups of 20 STD-ddy male mice, 5 weeks of age, were used.
Bacteria: E. coli E77156 which has been maintained in a freezed-culture was used.
Agents: Compounds of the present invention were dissolved or suspended in Dulbecco phosphate-buffered saline (PBS: pH 7.4) at a concentration of 500 μg/ml just before use.
Treatment and Infection: The animals were treated subcutaneously with 0.2 ml of each of the above solution or suspension (equivalent to 100 μg/mouse), followed by the subcutaneous challenge with E. coli 24 hours later.
The effect was judged from the percent survival of the mice seven days after the infection.

Meth-A tumor cells = experiment: Antitumor activity against Meth-A system; settings: BALB/c mice; Meth-A 1.5×10^6 cells mixed with 100 μg compound in PBS, intradermal; 27th day after inoculation
Procedure: (3) Antitumor Activity Against Meth-A System
A mixture of tumor cells (Meth-A, 1.5×10^6) and 100 μg of Compound 20 of the present invention suspended in PBS was inoculated intradermally in BALB/c mice. […] The value is expressed in terms of the number of tumor-free mice/the number of mice tested.

[2] = inoculum 4.4 × 10^6 cells/mouse
[3] = inoculum 6.17 × 10^6 cells/mouse

SMILES	Skin Reaction 24 Hours (diameter of erythema and induration) [1]	Skin Reaction 48 Hours (diameter of erythema and induration) [1]	% Survival 7 days after Infection (E. coli E77156; [3])	further results
COC(=O)CC[C@@H](NC(=O)[C@H](C)NC(=O)[C@@H](C)O[C@H]1[C@H](O)[C@@H](CO)O[C@@H](SC(C)=O)[C@@H]1NC(C)=O)C(N)=O [Compound 2, 2-Acetamido-1-S-acetyl-2-deoxy-3-O-(D-2-propanoyl-L-alanyl-D-isoglutaminemethyl ester)-1-thio-β-D-glucopyranose]	21.0 ± 1.0 mm	21.0 ± 0.7 mm	–	–
COC(=O)CC[C@@H](NC(=O)[C@H](C)NC(=O)[C@@H](C)O[C@H]1[C@H](O)[C@@H](CO)O[C@@H](S)[C@@H]1NC(C)=O)C(N)=O [Compound 3, 2-Acetamido-2-deoxy-3-O-(D-2-propanoyl-L-alanyl-D-isoglutaminemethyl ester)-1-thio-β-D-glucopyranose]	22.1 ± 0.9 mm	20.9 ± 0.7 mm	–	–
CC(=O)NC1C(S)OC(CO)C(O)C1OC(C)C(=O)NC(C)C(=O)NC(CCC(=O)O)C(N)=O [Compound 4, 2-acetamido-2-deoxy-3-O-(D-2-propanoyl-L-alanyl-D-isoglutamine)-1-thio-β-D-glucopyranose]	23.1 ± 1.2 mm	21.0 ± 1.3 mm	–	% Survival 7 days after Infection (E. coli E77156; [2]): 55%
CCCCS[C@@H]1O[C@H](CO)[C@@H](O)[C@H](O[C@H](C)C(=O)N[C@@H](C)C(=O)N[C@H](CCC(=O)OC)C(N)=O)[C@H]1NC(C)=O [Compound 8, 1-S-n-Butyl 2-acetamido-2-deoxy-3-O-(D-2-propanoyl-L-alanyl-D-isoglutaminemethyl ester)-1-thio-β-D-glucopyranoside]	14.5 ± 0.7 mm	10.3 ± 1.0 mm	–	–
CCCCCCCCCCCCCCCCSC1OC(CO)C(O)C(OC(C)C(=O)NC(C)C(=O)NC(CCC(=O)OC)C(N)=O)C1NC(C)=O [Compound 9, 1-S-Hexadecanyl 2-acetamido-2-deoxy-3-O-(D-2-propanoyl-L-alanyl-D-isoglutaminemethyl ester)-1-thio-β-D-glucopyranoside]	13.5 ± 0.8 mm	12.4 ± 0.7 mm	–	–
CCCCSC1OC(CO)C(O)C(OC(C)C(=O)NC(C)C(=O)NC(CCC(=O)O)C(N)=O)C1NC(C)=O [Compound 10, 1-S-n-Butyl 2-acetamido-2-deoxy-3-O-(D-2-propanoyl-L-alanyl-D-isoglutamine)-1-thio-β-D-glucopyranoside]	17.4 ± 1.7 mm	13.6 ± 1.8 mm	–	–
CCCCCCCCCCCCCCCCSC1OC(CO)C(O)C(OC(C)C(=O)NC(C)C(=O)NC(CCC(=O)O)C(N)=O)C1NC(C)=O [Compound 11, 1-S-Hexadecanyl 2-acetamido-2-deoxy-3-O-(D-2-propanoyl-L-alanyl-D-isoglutamine)-1-thio-β-D-glucopyranoside]	15.6 ± 1.9 mm	11.6 ± 1.4 mm	–	–
CCCCCCCCCCCCCCCC(=O)S[C@@H]1O[C@H](CO)[C@@H](O)[C@H](O[C@H](C)C(=O)N[C@@H](C)C(=O)N[C@H](CCC(=O)OC)C(N)=O)[C@H]1NC(C)=O [Compound 14, 2-Acetamido-2-deoxy-1-S-hexadecanoyl-3-O-(D-2-propanoyl-L-alanyl-D-isoglutaminemethyl ester)-1-thio-β-D-glucopyranose]	20.4 ± 0.7 mm	21.0 ± 1.4 mm	–	% Survival 7 days after Infection (E. coli E77156; [2]): 80%
CC(=O)NC1C(S)OC2COC(C)(C)OC2C1OC(C)C(=O)NC(C)C(=O)NC(CCC(=O)O)C(N)=O [Compound 15, 2-Acetamido-2-deoxy-4,6-O-isopropylidene-3-O-(D-2-propanoyl-L-alanyl-D-isoglutamine)-1-thio-β-D-glucopyranose]	16.9 ± 0.8 mm	14.0 ± 1.0 mm	–	–
CCCCCCCCCCCCCCCC(=O)SC1OC2COC(C)(C)OC2C(OC(C)C(=O)NC(C)C(=O)NC(CCC(=O)O)C(N)=O)C1NC(C)=O [Compound 16, 2-Acetamido-2-deoxy-1-S-hexadecanoyl-4,6-O-isopropylidene-3-O-(D-2-propanoyl-L-alanyl-D-isoglutamine)-1-thio-β-D-glucopyranose]	11.3 ± 0.8 mm	5.6 ± 1.4 mm	–	–
CCCCCCCCCCCCCCCC(=O)S[C@@H]1O[C@H](CO)[C@@H](O)[C@H](O[C@H](C)C(=O)N[C@@H](C)C(=O)N[C@H](CCC(=O)O)C(N)=O)[C@H]1NC(C)=O [Compound 17, 2-Acetamido-2-deoxy-1-S-hexadecanoyl-3-O-(D-2-propanoyl-L-alanyl-D-isoglutamine)-1-thio-β-D-glucopyranose]	21.8 ± 0.8 mm	23.1 ± 1.1 mm	–	% Survival 7 days after Infection (E. coli E77156; [2]): 60%
CCCCCCCCCC(=O)S[C@@H]1O[C@H](CO)[C@@H](O)[C@H](O[C@H](C)C(=O)N[C@@H](C)C(=O)N[C@H](CCC(=O)OC)C(N)=O)[C@H]1NC(C)=O [Compound 18, 2-Acetamido-2-deoxy-1-S-decanoyl-3-O-(D-2-propanoyl-L-alanyl-D-isoglutaminemethyl ester)-1-thio-β-D-glucopyranose]	–	–	90%	–
CCCCCCCCCCCCCCCCCC(=O)S[C@@H]1O[C@H](CO)[C@@H](O)[C@H](O[C@H](C)C(=O)N[C@@H](C)C(=O)N[C@H](CCC(=O)OC)C(N)=O)[C@H]1NC(C)=O [Compound 19, 2-Acetamido-2-deoxy-1-S-octadecanoyl-3-O-(D-2-propanoyl-L-alanyl-D-isoglutaminemethyl ester)-1-thio-β-D-glucopyranose]	–	–	70%	–
CCCCCCCCCCCCCCCCCCCCCCCCCCCCCC(=O)S[C@@H]1O[C@H](CO)[C@@H](O)[C@H](O[C@H](C)C(=O)N[C@@H](C)C(=O)N[C@H](CCC(=O)OC)C(N)=O)[C@H]1NC(C)=O [Compound 20, 2-Acetamido-2-deoxy-1-S-triacontanoyl-3-O-(D-2-propanoyl-L-alanyl-D-isoglutaminemethyl ester)-1-thio-β-D-glucopyranose]	–	–	–	Suppression of Meth-A growth (number of tumor-free mice/number of mice tested) (Meth-A tumor cells): 5/9
CCCC(=O)S[C@@H]1O[C@H](CO)[C@@H](O)[C@H](O[C@H](C)C(=O)N[C@@H](C)C(=O)N[C@H](CCC(=O)OC)C(N)=O)[C@H]1NC(C)=O [Compound 21, 2-Acetamido-2-deoxy-1-S-n-butanoyl-3-O-(D-2-propanoyl-L-alanyl-D-isoglutaminemethyl ester)-1-thio-β-D-glucopyranose]	–	–	50%	–
CCCCCCCCCCCC(=O)S[C@@H]1O[C@H](CO)[C@@H](O)[C@H](O[C@H](C)C(=O)N[C@@H](C)C(=O)N[C@H](CCC(=O)O)C(N)=O)[C@H]1NC(C)=O [Compound 22, 2-Acetamido-2-deoxy-1-S-dodecanoyl-3-O-(D-2-propanoyl-L-alanyl-D-isoglutamine)-1-thio-β-D-glucopyranose]	–	–	55%	–
CCCCCCCCCCCCCC(=O)SC1OC(CO)C(O)C(OC(C)C(=O)NC(C)C(=O)NC(CCC(=O)O)C(N)=O)C1NC(C)=O [Compound 23, 2-Acetamido-2-deoxy-1-S-tetradecanoyl-3-O-(D-2-propanoyl-L-alanyl-D-isoglutamine)-1-thio-β-D-glucopyranose]	–	–	60%	–
CCCCCCCCCCCCCC(=O)S[C@@H]1O[C@H](CO)[C@@H](O)[C@H](O[C@H](C)C(=O)N[C@@H](C)C(=O)N[C@H](CCC(=O)OC)C(N)=O)[C@H]1NC(C)=O [Compound 24, 2-Acetamido-2-deoxy-1-S-tetradecanoyl-3-O-(D-2-propanoyl-L-alanyl-D-isoglutaminemethyl ester)-1-thio-β-D-glucopyranose]	–	–	65%	–
CCCCCCCCCCCCCCCCCCCC(=O)S[C@@H]1O[C@H](CO)[C@@H](O)[C@H](O[C@H](C)C(=O)N[C@@H](C)C(=O)N[C@H](CCC(=O)O)C(N)=O)[C@H]1NC(C)=O [Compound 25, 2-Acetamido-2-deoxy-1-S-eicosanoyl-3-O-(D-2-propanoyl-L-alanyl-D-isoglutamine)-1-thio-β-D-glucopyranose]	–	–	–	% Survival 7 days after Infection (E. coli E77156; inoculum 6.88 × 10^6 cells/mouse): 55%
